From patent US12077503B2, “Substituted cyclic amides and their use as herbicides” (FMC CORPORATION, priority 2015, dated 2024)

What was measured:
Type in all cases: in vivo
[1] = system: giant foxtail (Setaria faberii); assay: Test A preemergence; settings: Setaria faberi, pre-emergence, 240 h, 0 to 100 scale (0 no effect, 100 complete control), read-out: Plant response rating, Foxtail, Giant; for pest or weed control at 500 g/ha: 500 g ai/ha, preemergence; for pest or weed control at 125 g/ha: Preemergence, 125 g ai/ha
In short: (§1)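 Treatment is preemergence as a directed soil spray after planting, or postemergence at the one- to two-leaf stage, with test chemical in a non-phytotoxic solvent mixture plus surfactant. Plants stay in the greenhouse about 10 d before visual injury scoring on a 0 to 100 scale versus untreated controls.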

[2] = system: wheat (Triticum aestivum); assay: Test A preemergence; settings: Triticum aestivum, pre-emergence, 240 h, 0 to 100 scale (0 no effect, 100 complete control), read-out: Plant response rating, Wheat; for plant injury at 500 g/ha: 500 g ai/ha, preemergence; for plant injury at 125 g/ha: Preemergence, 125 g ai/ha
In short: as §1

[3] = system: barnyardgrass (Echinochloa crus-galli); assay: Test A preemergence; settings: Echinochloa crus-galli, pre-emergence, 240 h, 0 to 100 scale (0 no effect, 100 complete control), read-out: Plant response rating, Barnyardgrass; for pest or weed control at 500 g/ha: 500 g ai/ha, preemergence; for pest or weed control at 125 g/ha: Preemergence, 125 g ai/ha
In short: as §1

[4] = system: morningglory (Ipomoea spp.); assay: Test A preemergence; settings: Ipomoea, pre-emergence, 240 h, 0 to 100 scale (0 no effect, 100 complete control), read-out: Plant response rating, Morningglory; for pest or weed control at 500 g/ha: 500 g ai/ha, preemergence; for pest or weed control at 125 g/ha: Preemergence, 125 g ai/ha
In short: as §1

corn (Zea mays) [5] = assay: Test A preemergence; settings: Zea mays, pre-emergence, 240 h, 0 to 100 scale (0 no effect, 100 complete control); for Corn plant response rating (crop injury, 0 = no effect, 100 = complete kill) at 500 g/ha: 500 g ai/ha, preemergence; for Corn plant response rating (crop injury, 0 = no effect, 100 = complete kill) at 125 g/ha: Preemergence, 125 g ai/ha
In short: as §1

[6] = system: velvetleaf (Abutilon theophrasti); assay: Test A preemergence; settings: Abutilon theophrasti, pre-emergence, 240 h, 0 to 100 scale (0 no effect, 100 complete control), read-out: Plant response rating, Velvetleaf; for pest or weed control at 500 g/ha: 500 g ai/ha, preemergence; for pest or weed control at 125 g/ha: Preemergence, 125 g ai/ha
In short: as §1

[7] = system: pigweed (Amaranthus retroflexus); assay: Test A preemergence; settings: Amaranthus retroflexus, pre-emergence, 240 h, 0 to 100 scale (0 no effect, 100 complete control), read-out: Plant response rating, Pigweed; for pest or weed control at 500 g/ha: 500 g ai/ha, preemergence; for pest or weed control at 125 g/ha: Preemergence, 125 g ai/ha
[8] = system: crabgrass, large (Digitaria sanguinalis); assay: Test A preemergence; settings: Digitaria sanguinalis, pre-emergence, 240 h, 0 to 100 scale (0 no effect, 100 complete control), read-out: Plant response rating, Crabgrass, Large; for pest or weed control at 500 g/ha: 500 g ai/ha, preemergence; for pest or weed control at 125 g/ha: Preemergence, 125 g ai/ha
In short: as §1

[9] = system: giant foxtail (Setaria faberii); assay: Test A postemergence; settings: Setaria faberi, post-emergence, 240 h, Postemergence; for pest or weed control at 125 g/ha: 125 g ai/ha, visual rating about 10 d after treatment, read-out: Foxtail, Giant plant response rating (0 to 100 scale); for pest or weed control at 500 g/ha: 500 g ai/ha, visual injury, 0 to 100 scale (0 no effect, 100 complete control), approx. 10 d, read-out: Plant response rating, Foxtail, Giant
In short: as §1

[10] = system: wheat (Triticum aestivum); assay: Test A postemergence; settings: Triticum aestivum, post-emergence, 240 h, Postemergence; for plant injury at 125 g/ha: 125 g ai/ha, visual rating about 10 d after treatment, read-out: Wheat plant response rating (0 to 100 scale); for plant injury at 500 g/ha: 500 g ai/ha, visual injury, 0 to 100 scale (0 no effect, 100 complete control), approx. 10 d, read-out: Plant response rating, Wheat
In short: as §1

[11] = system: barnyardgrass (Echinochloa crus-galli); assay: Test A postemergence; settings: Echinochloa crus-galli, post-emergence, 240 h, Postemergence; for pest or weed control at 125 g/ha: 125 g ai/ha, visual rating about 10 d after treatment, read-out: Barnyardgrass plant response rating (0 to 100 scale, 0 no effect, 100 complete control); for pest or weed control at 500 g/ha: 500 g ai/ha, visual injury, 0 to 100 scale (0 no effect, 100 complete control), approx. 10 d, read-out: Plant response rating, Barnyardgrass
In short: as §1

[12] = system: morningglory (Ipomoea spp.); assay: Test A postemergence; settings: Ipomoea, post-emergence, 240 h, Postemergence; for pest or weed control at 125 g/ha: 125 g ai/ha, visual rating about 10 d after treatment, read-out: Morningglory plant response rating (0 to 100 scale); for pest or weed control at 500 g/ha: 500 g ai/ha, visual injury, 0 to 100 scale (0 no effect, 100 complete control), approx. 10 d, read-out: Plant response rating, Morningglory
In short: as §1

corn (Zea mays) [13] = assay: Test A postemergence; settings: Zea mays, post-emergence, 240 h, Postemergence; for plant injury at 125 g/ha: 125 g ai/ha, visual rating about 10 d after treatment, read-out: Corn plant response rating (0 to 100 scale); for Corn plant response rating (crop injury, 0 = no effect, 100 = complete kill) at 500 g/ha: 500 g ai/ha, visual injury, 0 to 100 scale (0 no effect, 100 complete control), approx. 10 d
In short: as §1

[14] = system: velvetleaf (Abutilon theophrasti); assay: Test A postemergence; settings: Abutilon theophrasti, post-emergence, 240 h, Postemergence; for pest or weed control at 125 g/ha: 125 g ai/ha, visual rating about 10 d after treatment, read-out: Velvetleaf plant response rating (0 to 100 scale); for pest or weed control at 500 g/ha: 500 g ai/ha, visual injury, 0 to 100 scale (0 no effect, 100 complete control), approx. 10 d, read-out: Plant response rating, Velvetleaf
In short: as §1

[15] = system: pigweed (Amaranthus retroflexus); assay: Test A postemergence; settings: Amaranthus retroflexus, post-emergence, 240 h, Postemergence; for pest or weed control at 125 g/ha: 125 g ai/ha, visual rating about 10 d after treatment, read-out: Pigweed plant response rating (0 to 100 scale); for pest or weed control at 500 g/ha: 500 g ai/ha, visual injury, 0 to 100 scale (0 no effect, 100 complete control), approx. 10 d, read-out: Plant response rating, Pigweed
In short: as §1

[16] = system: crabgrass, large (Digitaria sanguinalis); assay: Test A postemergence; settings: Digitaria sanguinalis, post-emergence, 240 h, Postemergence; for pest or weed control at 125 g/ha: 125 g ai/ha, visual rating about 10 d after treatment, read-out: Crabgrass, Large plant response rating (0 to 100 scale); for pest or weed control at 500 g/ha: 500 g ai/ha, visual injury, 0 to 100 scale (0 no effect, 100 complete control), approx. 10 d, read-out: Plant response rating, Crabgrass, Large
In short: as §1

CN1C[C@H](c2ccccc2)[C@](C)(C(=O)Nc2ccccc2F)C1=O (racemic) [Compound 1360]
0%: pest or weed control at 500 g/ha [1] | pest or weed control at 125 g/ha [1] | plant injury at 500 g/ha [2] | plant injury at 125 g/ha [2] | pest or weed control at 500 g/ha [3] | pest or weed control at 125 g/ha [3] | pest or weed control at 500 g/ha [4] | pest or weed control at 125 g/ha [4] | Corn plant response rating (crop injury, 0 = no effect, 100 = complete kill) at 500 g/ha (corn (Zea mays) [5]) | Corn plant response rating (crop injury, 0 = no effect, 100 = complete kill) at 125 g/ha (corn (Zea mays) [5]) | pest or weed control at 500 g/ha [6] | pest or weed control at 125 g/ha [6] | pest or weed control at 500 g/ha [7] | pest or weed control at 125 g/ha [7] | pest or weed control at 500 g/ha [8] | pest or weed control at 125 g/ha [8] | pest or weed control at 125 g/ha [9] | pest or weed control at 500 g/ha [9] | plant injury at 125 g/ha [10] | plant injury at 500 g/ha [10] | pest or weed control at 125 g/ha [11] | pest or weed control at 500 g/ha [11] | pest or weed control at 125 g/ha [12] | pest or weed control at 500 g/ha [12] | plant injury at 125 g/ha (corn (Zea mays) [13]) | Corn plant response rating (crop injury, 0 = no effect, 100 = complete kill) at 500 g/ha (corn (Zea mays) [13]) | pest or weed control at 125 g/ha [14] | pest or weed control at 500 g/ha [14] | pest or weed control at 125 g/ha [15] | pest or weed control at 500 g/ha [15] | pest or weed control at 125 g/ha [16] | pest or weed control at 500 g/ha [16]

O=C1NCC(c2c(Cl)cccc2Cl)C1C(=O)Nc1ccccc1F (stereo not shown) [Compound 1361]
0%: pest or weed control at 500 g/ha [1] | pest or weed control at 125 g/ha [1] | plant injury at 500 g/ha [2] | plant injury at 125 g/ha [2] | pest or weed control at 500 g/ha [3] | pest or weed control at 125 g/ha [3] | pest or weed control at 500 g/ha [4] | pest or weed control at 125 g/ha [4] | Corn plant response rating (crop injury, 0 = no effect, 100 = complete kill) at 500 g/ha (corn (Zea mays) [5]) | Corn plant response rating (crop injury, 0 = no effect, 100 = complete kill) at 125 g/ha (corn (Zea mays) [5]) | pest or weed control at 500 g/ha [6] | pest or weed control at 125 g/ha [6] | pest or weed control at 500 g/ha [7] | pest or weed control at 125 g/ha [7] | pest or weed control at 500 g/ha [8] | pest or weed control at 125 g/ha [8] | pest or weed control at 125 g/ha [9] | pest or weed control at 500 g/ha [9] | plant injury at 125 g/ha [10] | plant injury at 500 g/ha [10] | pest or weed control at 125 g/ha [11] | pest or weed control at 500 g/ha [11] | pest or weed control at 125 g/ha [12] | pest or weed control at 500 g/ha [12] | plant injury at 125 g/ha (corn (Zea mays) [13]) | Corn plant response rating (crop injury, 0 = no effect, 100 = complete kill) at 500 g/ha (corn (Zea mays) [13]) | pest or weed control at 125 g/ha [14] | pest or weed control at 500 g/ha [14] | pest or weed control at 125 g/ha [15] | pest or weed control at 500 g/ha [15] | pest or weed control at 125 g/ha [16] | pest or weed control at 500 g/ha [16]
